Laboratory results taken from PubChem BioAssay (NCI).
Values joined by “and” are separate entries in the source; they are usually repeats but may differ in a detail not shown here. Identical values can stand only once.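 How tested: cells in 96-well plates exposed to compound for 48 hours at five concentrations. The concentration for 50% growth inhibition is given as GI50. TGI is the concentration that stops growth completely.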

Key:
Assay in all cases: NCI tumour cell line growth inhibition, 48 h
HOP-92 NSCLC = system: HOP-92 NSCLC
KM12 colon = system: KM12 colon
MOLT-4 leukemia = system: MOLT-4 leukemia
NCI-H226 lung = system: NCI-H226 lung
SK-MEL-5 melanoma = system: SK-MEL-5 melanoma
SK-OV-3 ovarian = system: SK-OV-3 ovarian
SNB-19 CNS = system: SNB-19 CNS
TK-10 renal = system: TK-10 renal
U251 CNS = system: U251 CNS
UO-31 renal = system: UO-31 renal

Compound	GI50 (HOP-92 NSCLC)	TGI (HOP-92 NSCLC)	GI50 (KM12 colon)	TGI (KM12 colon)	GI50 (MOLT-4 leukemia)	TGI (MOLT-4 leukemia)	GI50 (NCI-H226 lung)	TGI (NCI-H226 lung)	GI50 (SK-MEL-5 melanoma)	TGI (SK-MEL-5 melanoma)	GI50 (SK-OV-3 ovarian)	TGI (SK-OV-3 ovarian)	GI50 (SNB-19 CNS)	TGI (SNB-19 CNS)	GI50 (TK-10 renal)	TGI (TK-10 renal)	GI50 (U251 CNS)	TGI (U251 CNS)	GI50 (UO-31 renal)	TGI (UO-31 renal)
COc1ccc(-c2c(-c3cc(OC)c4c(c3)OCO4)noc2N)cc1	3.72 µM	35.8 µM	0.0161 µM	0.827 µM	0.0723 µM	17.5 µM	0.0883 µM	4.07 µM	0.0288 µM	0.485 µM	0.032 µM	1.29 µM	0.0708 µM	> 100 µM	10.4 µM	49.7 µM	0.0382 µM	42.7 µM	0.463 µM	35.5 µM
CCOC(=O)Nc1ccc(-c2nc(-c3cccc(OC)c3)c(-c3ccnc(Br)c3)[nH]2)cc1	2.36 µM	7.69 µM	2.51 µM	9.06 µM	2.21 µM	> 100 µM	2.21 µM	7.78 µM	1.83 µM	3.43 µM	3.9 µM	> 100 µM	2.96 µM	> 100 µM	3.88 µM	> 100 µM	2.44 µM	> 100 µM	2.19 µM	7.75 µM
CS(=O)(=O)CCNCc1ccc(-c2ccc3ncnc(Nc4ccc(OCc5ccccc5)c(Cl)c4)c3c2)o1	3.06 µM	11.3 µM	6.41 µM	17.8 µM	6.05 µM	> 25 µM	4.74 µM	> 22.9 µM	2.98 µM	6.08 µM	0.0416 µM	> 8.58 µM	10.4 µM	> 25 µM	0.158 µM	> 14.1 µM	5.02 µM	> 15.8 µM	1.64 µM	7.38 µM
COC1=Nc2ccccc2S(=O)(=O)C=C1	0.742 µM	15.2 µM	–	28.4 µM	0.489 µM and 0.44 µM	2.47 µM	–	> 100 µM	–	24.5 µM	–	> 100 µM	–	56.7 µM	–	11.3 µM	–	24.4 µM	–	12.5 µM
CC(=O)[O][Hg][c]1ccccc1	0.299 µM	0.92 µM	1.6 µM	3.04 µM	0.19 µM	0.551 µM	1.12 µM	4.81 µM	0.472 µM	1.82 µM	1.37 µM	2.68 µM	1.46 µM	3.05 µM	0.512 µM	1.36 µM	0.453 µM	1.75 µM	1.23 µM	2.54 µM
O=C(Oc1ccccc1Cl)c1ccccc1Nc1ccnc(C(F)(F)F)c1	0.271 µM	13.4 µM	0.299 µM	1.36 µM	0.258 µM	–	0.286 µM	0.915 µM	0.264 µM	0.545 µM	8.02 µM	46.4 µM	7.43 µM	> 100 µM	0.415 µM	4.61 µM	0.271 µM	0.808 µM	9.63 µM	> 57.9 µM
Nc1c(C(=O)Nc2ccccc2F)sc2nc3c(cc12)C(=O)CCC3	0.121 µM	> 100 µM	0.547 µM	> 100 µM	> 100 µM	> 100 µM	10.5 µM	> 100 µM	0.382 µM	> 100 µM	0.746 µM	> 100 µM	2.6 µM	> 100 µM	4.3 µM	> 100 µM	1.23 µM	> 100 µM	> 100 µM	> 100 µM
Cc1c(NC(=O)OC[C@@H]2COCCN2)cn2ncnc(Nc3ccc4c(cnn4Cc4cccc(F)c4)c3)c12	1.45 µM and 0.991 µM	> 10 µM and 10.7 µM	> 10 µM and 11.5 µM	> 10 µM and 25.5 µM	7.63 µM and 7.76 µM	> 10 µM and 24.1 µM	> 10 µM and 11.3 µM	> 10 µM and 35.6 µM	5.3 µM and 5.56 µM	> 10 µM and 17.4 µM	1.09 µM and 0.711 µM	> 10 µM and 16.6 µM	> 10 µM and 9.04 µM	> 10 µM and 23.2 µM	0.546 µM and 0.415 µM	> 10 µM and 15.7 µM	7.5 µM and 5.16 µM	> 10 µM and 18.6 µM	1.25 µM and 1.55 µM	> 10 µM and 16.5 µM
O=C(CCCCCCSc1nc(-c2ccc(Cl)cc2)cc(-c2ccc(Cl)cc2)n1)NO	1.61 µM	8.39 µM	2.02 µM	> 50 µM	1.5 µM	> 50 µM	1.71 µM	17.5 µM	1.19 µM	2.74 µM	1.32 µM	4.19 µM	1.97 µM	20.4 µM	1.61 µM	11.9 µM	1.63 µM	6.08 µM	0.735 µM	2.42 µM
